# Reference: ChEMBL document CHEMBL1136418, “Synthesis and gamma-secretase activity of APP substrate-based hydroxyethylene dipeptide isosteres” (Bioorg Med Chem Lett, 2003)
# Assays:
# [1] = target: T1, Gamma-secretase subunit PEN-2 (Homo sapiens, UniProt Q9NZ42); experiment: Compound required for inhibition of gamma-secretase-mediated formation of Abeta1-42 polypeptide; type: functional
# [2] = target: T1, Gamma-secretase subunit PEN-2; experiment: Compound required for inhibition of gamma-secretase-mediated formation of Abeta1-40 polypeptide; type: functional
# [3] = target: T1, Gamma-secretase subunit PEN-2; experiment: Inhibitory concentration against gamma-secretase was determined
# T1 sequence (Q9NZ42 whole entry): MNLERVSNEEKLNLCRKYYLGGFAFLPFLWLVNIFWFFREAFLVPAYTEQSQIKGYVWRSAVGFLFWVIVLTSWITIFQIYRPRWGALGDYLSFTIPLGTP
SMILES,ED50 [1] [µM],ED50 [2] [µM],IC50 [3] [µM]
CC(C)C[C@H](NC(=O)/C(=C/C[C@H](Cc1ccccc1)NC(=O)OC(C)(C)C)Cc1ccccc1)C(=O)N[C@@H](Cc1ccccc1)C(N)=O,> 10,> 10,
CC(C)C[C@H](NC(=O)[C@H](CN)C[C@@H](O)[C@H](Cc1ccccc1)NC(=O)OC(C)(C)C)C(=O)N[C@@H](Cc1ccccc1)C(N)=O,> 10,> 10,
CCC(C)[C@H](NC(=O)[C@@H](NC(=O)[C@@H](C[C@@H](O[Si](C)(C)C(C)(C)C)[C@H](C)NC(=O)OC(C)(C)C)[C@@H](C)O[Si](C)(C)C(C)(C)C)C(C)C)C(N)=O (stereo partly specified),> 10,> 10,
CC(C)C[C@H](NC(=O)C(CC[C@H](Cc1ccccc1)NC(=O)OC(C)(C)C)Cc1ccccc1)C(=O)N[C@@H](Cc1ccccc1)C(N)=O (stereo partly specified),> 10,> 10,
CC[C@H](C)[C@H](NC(=O)[C@@H](NC(=O)[C@H](Cc1ccccc1)C[C@@H](O)[C@H](Cc1ccccc1)NC(=O)OC(C)(C)C)C(C)C)C(N)=O,35,32,

# Second part, the compound after the results:
ED50 [1] [µM],ED50 [2] [µM],IC50 [3] [µM],SMILES
> 10,> 10,,CCC(C)C(C[C@@H](O[Si](C)(C)C(C)(C)C)[C@@H](NC(=O)OC(C)(C)C)C(C)C)C(=O)N[C@@H](C)C(=O)N[C@H](C(N)=O)C(C)O (stereo partly specified)
230,732,,"CC(NC(=O)[C@H](Cc1ccccc1)C[C@@H](O)[C@H](Cc1ccccc1)NC(=O)OC(C)(C)C)C(=O)N[C@H](C(N)=O)[C@H](C)O (single isomer, unassigned)"
> 10,> 10,,CCC(C)[C@H](NC(=O)[C@@H](NC(=O)[C@H](C[C@@H](O[Si](C)(C)C(C)(C)C)[C@H](C)NC(=O)OC(C)(C)C)C(C)O[Si](C)(C)C(C)(C)C)C(C)C)C(N)=O (stereo partly specified)
> 10,> 10,,CCC(C)[C@H](NC(=O)[C@@H](NC(=O)[C@@H](C[C@@H](O[Si](C)(C)C(C)(C)C)[C@H](C)NC(=O)OC(C)(C)C)[C@H](C)O[Si](C)(C)C(C)(C)C)C(C)C)C(N)=O (stereo partly specified)
0.014,0.036,0.3,CC(C)C[C@H](NC(=O)[C@H](Cc1ccccc1)C[C@@H](O)[C@H](Cc1ccccc1)NC(=O)OC(C)(C)C)C(=O)N[C@@H](Cc1ccccc1)C(N)=O
